According to patent US3951746A, “Antibiotics and process for their manufacture” (Schering Corporation, priority 1975, dated 1976):
Where a name gives a salt, the structure may show the parent alone. Read-outs that look alike come from different tables or passages of the source.

Tests used:
[1] = system: Staphylococcus aureus ATCC 6538P; assay: disc plate assay (microbiological assay); assay type: cell-based
Streptococcus pyogenes C [2] = assay: MIC in vitro (Table VIII); conditions: for MIC: pH 7.4, read-out: Minimum Inhibitory Concentration - MIC
Streptococcus pyogenes 6 = assay: MIC in vitro (Table VIII); conditions: for MIC: pH 7.4, read-out: Minimum Inhibitory Concentration - MIC
Aerobacter aerogenes 3 = assay: MIC in vitro (Table VIII)
Aerobacter aerogenes 4 = assay: MIC in vitro (Table VIII); conditions: for MIC: pH 7.4, read-out: Minimum Inhibitory Concentration - MIC
Escherichia coli Sc = assay: MIC in vitro (Table VIII); conditions: for MIC: pH 7.4, read-out: Minimum Inhibitory Concentration - MIC
Escherichia coli 5 = assay: MIC in vitro (Table VIII); conditions: for MIC: pH 7.4, read-out: Minimum Inhibitory Concentration - MIC
Escherichia coli 19 = assay: MIC in vitro (Table VIII); conditions: for MIC: pH 7.4, read-out: Minimum Inhibitory Concentration - MIC
[3] = system: Klebsiella pneumoniae Ad KR; assay: MIC in vitro (Table VIII); conditions: for MIC: pH 7.4, read-out: Minimum Inhibitory Concentration - MIC
[4] = system: Klebsiella pneumoniae 17 KR; assay: MIC in vitro (Table VIII); conditions: for MIC: pH 7.4, read-out: Minimum Inhibitory Concentration - MIC
Proteus mirabilis MeF = assay: MIC in vitro (Table VIII); conditions: for MIC: pH 7.4, read-out: Minimum Inhibitory Concentration - MIC
Proteus vulgaris 2 = assay: MIC in vitro (Table VIII); conditions: for MIC: pH 7.4, read-out: Minimum Inhibitory Concentration - MIC
[5] = system: Pseudomonas aeruginosa 8689; assay: MIC in vitro (Table VIII); conditions: for MIC: pH 7.4, read-out: Minimum Inhibitory Concentration - MIC
[6] = system: Pseudomonas aeruginosa Miller; assay: MIC in vitro (Table VIII); conditions: for MIC: pH 7.4, read-out: Minimum Inhibitory Concentration - MIC
Salmonella paratyphi B1 = assay: MIC in vitro (Table VIII); conditions: for MIC: pH 7.4, read-out: Minimum Inhibitory Concentration - MIC
Salmonella paratyphi B2 = assay: MIC in vitro (Table VIII); conditions: for MIC: pH 7.4, read-out: Minimum Inhibitory Concentration - MIC
Candida albicans 406 = assay: MIC in vitro (Table VIII); conditions: for MIC: pH 7.4, read-out: Minimum Inhibitory Concentration - MIC
Candida albicans 401 = assay: MIC in vitro (Table VIII); conditions: for MIC: pH 7.4, read-out: Minimum Inhibitory Concentration - MIC
Candida albicans 411 = assay: MIC in vitro (Table VIII); conditions: for MIC: pH 7.4, read-out: Minimum Inhibitory Concentration - MIC
Saccharomyces cerevisiae = assay: MIC in vitro (Table VIII); conditions: for MIC: Saccharomyces cerevisiae, pH 7.4, read-out: Minimum Inhibitory Concentration - MIC
[7] = system: gram positive and gram-negative bacteria; assay type: cell-based
[8] = system: kanamycin resistant bacteria; assay type: cell-based
bacteria = assay type: cell-based
yeast = assay type: cell-based
[9] = system: gram-positive and gram-negative organisms; design: species or system mice; conditions: mouse
[10] = system: Staphylococcus aureus Gray; design: species or system mice; conditions: mouse, in vivo, sc
Streptococcus pyogenes C [11] = system: Streptococcus pyogenes C; design: species or system mice; conditions: mouse, in vivo, sc
Escherichia coli 10536 = system: Escherichia coli 10536; design: species or system mice; conditions: mouse, in vivo, sc
[12] = system: Pseudomonas aeruginosa 8689; design: species or system mice; conditions: mouse, in vivo, sc
[13] = system: Staphylococcus aureus 209P; assay: MIC in vitro (Table VIII); conditions: 24 hours; yeast beef broth (pH 7.4)
[14] = 24 hours, yeast beef broth (pH 7.4)
[15] = 24 hours, yeast beef broth (pH 7.4), kanamycin-resistant

## CN[C@@H]1[C@@H](O)[C@@H](O[C@@H]2[C@@H](O)[C@H](O[C@H]3OC(C(C)N)=CC[C@H]3N)[C@@H](N)C[C@H]2N)OC[C@]1(C)O (stereo partly shown) [Verdamicin I Sulfate]
[1]; gentamicin assay
  assay potency in the gentamicin assay: 674 µg/mg
Streptococcus pyogenes C [2]; 24 h
  MIC: 0.75 mg/L
Streptococcus pyogenes C [2]; 48 h
  MIC: 3 mg/L
Streptococcus pyogenes 6; 24 h
  MIC: 0.3 mg/L
Streptococcus pyogenes 6; 48 h
  MIC: 0.75 mg/L
Aerobacter aerogenes 3; 24 h, pH 7.4, read-out: Minimum Inhibitory Concentration - MIC
  MIC: 0.3 mg/L
Aerobacter aerogenes 4; 24 h
  MIC: 0.3 mg/L
Aerobacter aerogenes 4; 48 h
  MIC: 0.3 mg/L
Escherichia coli Sc; 24 h
  MIC: 0.3 mg/L
Escherichia coli Sc; 48 h
  MIC: 0.75 mg/L
Escherichia coli 5; 24 h
  MIC: 0.3 mg/L
Escherichia coli 5; 48 h
  MIC: 0.75 mg/L
Escherichia coli 19; 24 h
  MIC: 0.3 mg/L
Escherichia coli 19; 48 h
  MIC: 0.3 mg/L
[3]; 24 h
  MIC: 0.3 mg/L
[3]; 48 h
  MIC: 0.3 mg/L
[4]; 24 h
  MIC: 0.3 mg/L
[4]; 48 h
  MIC: 0.3 mg/L
Proteus mirabilis MeF; 24 h
  MIC: 0.3 mg/L
Proteus mirabilis MeF; 48 h
  MIC: 0.3 mg/L
Proteus vulgaris 2; 24 h
  MIC: 0.3 mg/L
Proteus vulgaris 2; 48 h
  MIC: 0.3 mg/L
[5]; 24 h
  MIC: 0.075 mg/L
[5]; 48 h
  MIC: 0.3 mg/L
[6]; 24 h
  MIC: 0.75 mg/L
[6]; 48 h
  MIC: 0.75 mg/L
Salmonella paratyphi B1; 24 h
  MIC: 0.3 mg/L
Salmonella paratyphi B1; 48 h
  MIC: 0.75 mg/L
Salmonella paratyphi B2; 24 h
  MIC: 0.3 mg/L
Salmonella paratyphi B2; 48 h
  MIC: 0.3 mg/L
Candida albicans 406; 24 h
  MIC: > 10 mg/L
Candida albicans 406; 48 h
  MIC: > 10 mg/L
Candida albicans 401; 24 h
  MIC: > 10 mg/L
Candida albicans 401; 48 h
  MIC: > 10 mg/L
Candida albicans 411; 24 h
  MIC: > 10 mg/L
Candida albicans 411; 48 h
  MIC: > 10 mg/L
Saccharomyces cerevisiae; 24 h
  MIC: > 10 mg/L
Saccharomyces cerevisiae; 48 h
  MIC: > 10 mg/L

## CN[C@@H]1[C@@H](O)[C@@H](O[C@@H]2[C@@H](O)[C@H](O[C@H]3OC(C(C)N)=CC[C@H]3N)[C@@H](N)C[C@H]2N)OC[C@]1(C)O (stereo partly shown) [Verdamicin I]
[1]
  assay potency in the gentamicin assay: 1000 µg/mg
  dose response curve: parallel to that of gentamicin
[7]
  antibacterial activity in vitro: broad spectrum of antibacterial activity
[8]
  activity against kanamycin resistant bacteria: active against kanamycin resistant bacteria
bacteria
  cross resistance with gentamicin: appears to be cross resistant with gentamicin
yeast
  in vitro activity against yeast: does not exhibit any substantial in vitro activity against yeast
[9]
  antibacterial activity in vivo: potent antibacterial agent
physchem
  pKa: 8.1

## Gentamicin
[10]
  PD50: 2.4 mg/kg
Streptococcus pyogenes C [11]
  PD50: 5.0 mg/kg
Escherichia coli 10536
  PD50: 1.7 mg/kg
[12]
  PD50: 1.7 mg/kg

## Gentamicin Sulfate [reference compound]
[13]
  Minimum Inhibitory Concentration - MIC: 0.1 mg/L
Streptococcus pyogenes C [2]; [14]
  Minimum Inhibitory Concentration - MIC: 3.0 mg/L
Streptococcus pyogenes 6; [14]
  Minimum Inhibitory Concentration - MIC: 1.0 mg/L
Aerobacter aerogenes 3; [14]
  Minimum Inhibitory Concentration - MIC: 0.6 mg/L
Aerobacter aerogenes 4; [14]
  Minimum Inhibitory Concentration - MIC: 0.3 mg/L
Escherichia coli Sc; [14]
  Minimum Inhibitory Concentration - MIC: 0.75 mg/L
Escherichia coli 5; [14]
  Minimum Inhibitory Concentration - MIC: 0.3 mg/L
Escherichia coli 19; [14]
  Minimum Inhibitory Concentration - MIC: 0.3 mg/L
[3]; [15]
  Minimum Inhibitory Concentration - MIC: 0.3 mg/L
[4]; [15]
  Minimum Inhibitory Concentration - MIC: 0.3 mg/L
Proteus mirabilis MeF; [14]
  Minimum Inhibitory Concentration - MIC: 0.3 mg/L
Proteus vulgaris 2; [14]
  Minimum Inhibitory Concentration - MIC: 0.3 mg/L
[5]; [14]
  Minimum Inhibitory Concentration - MIC: 0.3 mg/L
[6]; [14]
  Minimum Inhibitory Concentration - MIC: 0.5 mg/L
Salmonella paratyphi B1; [14]
  Minimum Inhibitory Concentration - MIC: 1.0 mg/L
Salmonella paratyphi B2; [14]
  Minimum Inhibitory Concentration - MIC: 0.5 mg/L
Candida albicans 406; [14]
  Minimum Inhibitory Concentration - MIC: > 50 mg/L
Candida albicans 401; [14]
  Minimum Inhibitory Concentration - MIC: > 50 mg/L
Candida albicans 411; [14]
  Minimum Inhibitory Concentration - MIC: > 50 mg/L
Saccharomyces cerevisiae; [14]
  Minimum Inhibitory Concentration - MIC: > 50 mg/L
